# In ChEMBL document CHEMBL5233274, “Current Landscape and Future Perspective of Oxazolidinone Scaffolds Containing Antibacterial Drugs” (J Med Chem, 2021):
# Columns and labels:
# Type in all cases: functional
# [1] = tested on: Escherichia coli; assay: Antibacterial activity against Escherichia coli assessed as inhibition of bacterial growth measured per 100 uL incubated for 24 hrs by agar well diffusion method
# [2] = tested on: Bacillus subtilis; assay: Antibacterial activity against Bacillus subtilis assessed as inhibition of bacterial growth measured per 100 uL incubated for 24 hrs by agar well diffusion method
# [3] = tested on: Staphylococcus aureus; assay: Antibacterial activity against Staphylococcus aureus assessed as inhibition of bacterial growth measured per 100 uL incubated for 24 hrs by agar well diffusion method
# [4] = tested on: Candida albicans; assay: Antifungal activity against Candida albicans assessed as inhibition of fungal growth incubated measured per 100 uL incubated for 24 hrs by agar well diffusion method
# [5] = tested on: Pseudomonas aeruginosa; assay: Antibacterial activity against Pseudomonas aeruginosa assessed as inhibition of bacterial growth measured per 100 uL incubated for 24 hrs by agar well diffusion method
# [6] = tested on: Saccharomyces cerevisiae; assay: Antifungal activity against Saccharomyces cerevisiae assessed as inhibition of fungal growth incubated measured per 100 uL incubated for 24 hrs by agar well diffusion method
# [7] = tested on: Staphylococcus aureus; assay: Antibacterial activity against Staphylococcus aureus NCIM 5257 assessed as inhibition of bacterial growth incubated for 24 hrs by serial broth dilution method
# [8] = tested on: Klebsiella pneumoniae; assay: Antibacterial activity against Klebsiella pneumoniae NCIM 5289 assessed as inhibition of bacterial growth incubated for 24 hrs by serial dilution method
# [9] = tested on: Enterococcus faecalis; assay: Antibacterial activity against Streptococcus faecalis NCIM 2080 assessed as inhibition of bacterial growth incubated for 24 hrs by serial dilution method
# [10] = tested on: Escherichia coli; assay: Antibacterial activity against Escherichia coli NCIM 2065 assessed as inhibition of bacterial growth incubated for 24 hrs by serial dilution method
# [11] = tested on: Pseudomonas aeruginosa; assay: Antibacterial activity against Pseudomonas aeruginosa NCIM 5210 assessed as inhibition of bacterial growth incubated for 24 hrs by serial dilution method
# [12] = tested on: Bacillus subtilis; assay: Antibacterial activity against Bacillus subtilis NCIM 2097 assessed as inhibition of bacterial growth incubated for 24 hrs by serial broth dilution method
# [13] = tested on: Staphylococcus aureus; assay: Antibacterial activity against methicillin-resistant Staphylococcus aureus assessed as inhibition of bacterial growth incubated for 18 to 24 hrs by CLSI protocol based Tryptic soy broth method; settings: time 18-24 hrs
# [14] = tested on: Enterococcus faecalis; assay: Antibacterial activity against Enterococcus faecalis ATCC 29212 assessed as inhibition of bacterial growth incubated for 18 to 24 hrs by CLSI protocol based Tryptic soy broth method; settings: time 18-24 hrs
# [15] = tested on: Staphylococcus aureus; assay: Antibacterial activity against Staphylococcus aureus ATCC 25923 assessed as inhibition of bacterial growth incubated for 18 to 24 hrs by CLSI protocol based Tryptic soy broth method; settings: time 18-24 hrs
# [16] = tested on: Staphylococcus epidermidis; assay: Antibacterial activity against Staphylococcus epidermidis ATCC 12228 assessed as inhibition of bacterial growth incubated for 18 to 24 hrs by CLSI protocol based Tryptic soy broth method; settings: time 18-24 hrs
# [17] = tested on: Staphylococcus aureus; assay: Antibacterial activity against methicillin-resistant Staphylococcus aureus assessed as inhibition of bacterial growth by CLSI protocol based method
# [18] = tested on: Enterococcus; assay: Antibacterial activity against vancomycin-resistant Enterococcus assessed as inhibition of bacterial growth by CLSI protocol based method
# [19] = tested on: Staphylococcus aureus; assay: Antibacterial activity against Staphylococcus aureus ATCC 29213 assessed as inhibition of bacterial growth by CLSI protocol based method
smiles,measurement,setting,value
O=C1NC(Cc2ccc(Nc3nc(-c4ccc5ccccc5c4)cs3)cc2)CO1 (stereo not drawn),MIC,[1],12.5 µg
same,MIC,[2],25 µg
same,MIC,[3],6.25 µg
same,MIC,[4],12.5 µg
same,MIC,[5],12.5 µg
same,MIC,[6],12.5 µg
O=C(O)c1cn(C2CC2)c2cc(N3CCNCC3)c(F)cc2c1=O [CIPROFLOXACIN],MIC,[2],6.25 µg
same,MIC,[3],6.25 µg
O=C(/C=C/c1ccc([N+](=O)[O-])cc1)c1ccc(-c2ccc(N3C[C@H](CO)OC3=O)cc2)cc1,MIC,[7],3.12 µg/mL
same,MIC,[8],3.12 µg/mL
same,MIC,[9],3.12 µg/mL
same,MIC,[10],3.12 µg/mL
same,MIC,[11],3.12 µg/mL
same,MIC,[12],3.12 µg/mL
COc1cc(/C=C/C(=O)c2ccc(-c3ccc(N4C[C@H](CO)OC4=O)cc3)cc2)ccc1O,MIC,[7],3.12 µg/mL
same,MIC,[8],3.12 µg/mL
same,MIC,[9],3.12 µg/mL
same,MIC,[10],3.12 µg/mL
same,MIC,[11],3.12 µg/mL
same,MIC,[12],3.12 µg/mL
Cc1nc(C)c(COc2ccc(N3C[C@H](Cn4ccnn4)OC3=O)cc2)nc1C,MIC,[13],32 µg/mL
same,MIC,[14],128 µg/mL
same,MIC,[15],64 µg/mL
same,MIC,[16],64 µg/mL
CCCCc1cn(C[C@H]2CN(c3ccc(OCc4nc(C)c(C)nc4C)c(F)c3)C(=O)O2)nn1,MIC,[13],> 128 µg/mL
same,MIC,[14],> 128 µg/mL
same,MIC,[15],> 128 µg/mL
same,MIC,[16],> 128 µg/mL
CC(=O)NC[C@H]1CN(c2ccc(OCc3nc(C)c(C)nc3C)c(F)c2)C(=O)O1,MIC,[13],4 µg/mL
same,MIC,[14],16 µg/mL
same,MIC,[15],8 µg/mL
same,MIC,[16],4 µg/mL
CC(=O)NC[C@H]1CN(c2ccc(OCc3nc(C)c(C)nc3C)cc2)C(=O)O1,MIC,[13],8 µg/mL
same,MIC,[14],32 µg/mL
same,MIC,[15],16 µg/mL
same,MIC,[16],16 µg/mL
Cc1nc(C)c(COc2ccc(N3C[C@H](CNC(=O)C(Cl)Cl)OC3=O)cc2)nc1C,MIC,[13],4 µg/mL
same,MIC,[14],16 µg/mL
same,MIC,[15],8 µg/mL
same,MIC,[16],8 µg/mL
COCC(=O)NC[C@H]1CN(c2ccc(OCc3nc(C)c(C)nc3C)c(F)c2)C(=O)O1,MIC,[13],32 µg/mL
same,MIC,[14],128 µg/mL
same,MIC,[15],128 µg/mL
same,MIC,[16],32 µg/mL
CC(=O)NC[C@H]1CN(c2ccc(N3CCN(/N=C/Cn4c([N+](=O)[O-])cnc4C)CC3)c(F)c2)C(=O)O1,MIC,[17],1 µg/mL
same,MIC,[18],4 µg/mL
same,MIC,[19],1 µg/mL
CC(=O)NC[C@H]1CN(c2ccc(N3CCN(/N=C/c4ncc(N)n4C)CC3)c(F)c2)C(=O)O1,MIC,[17],> 8 µg/mL
same,MIC,[18],> 8 µg/mL
same,MIC,[19],> 8 µg/mL
CC(=O)NC[C@H]1CN(c2ccc(N3CCN(Cc4ccc([N+](=O)[O-])o4)CC3)c(F)c2)C(=O)O1 [RANBEZOLID],MIC,[17],2 µg/mL
same,MIC,[18],2 µg/mL
same,MIC,[19],1 µg/mL
O=C(/C=C/c1ccc(Cl)cc1)c1ccc(-c2ccc(N3C[C@H](CO)OC3=O)cc2)cc1,MIC,[7],3.12 µg/mL
same,MIC,[8],3.12 µg/mL
same,MIC,[9],3.12 µg/mL
same,MIC,[10],3.12 µg/mL
same,MIC,[11],3.12 µg/mL
same,MIC,[12],3.12 µg/mL
COc1ccc(/C=C/C(=O)c2ccc(-c3ccc(N4C[C@H](CO)OC4=O)cc3)cc2)cc1,MIC,[7],3.12 µg/mL
same,MIC,[8],3.12 µg/mL
same,MIC,[9],3.12 µg/mL
same,MIC,[10],3.12 µg/mL
same,MIC,[11],3.12 µg/mL
same,MIC,[12],3.12 µg/mL
CC(=O)NC[C@H]1CN(c2ccc(N3CCN(/N=C/c4ccccc4[N+](=O)[O-])CC3)c(F)c2)C(=O)O1,MIC,[17],1 µg/mL
same,MIC,[18],2 µg/mL
same,MIC,[19],2 µg/mL
CC(=O)NC[C@H]1CN(c2ccc(N3CCOCC3)c(F)c2)C(=O)O1 [LINEZOLID],MIC,[18],2 µg/mL
Cc1nc(C)c(COc2ccc(N3C[C@H](Cn4ccnn4)OC3=O)cc2F)nc1C,MIC,[13],4 µg/mL
same,MIC,[14],32 µg/mL
same,MIC,[15],8 µg/mL
same,MIC,[16],8 µg/mL
Cc1nc(C)c(COc2ccc(N3C[C@H](CO)OC3=O)cc2F)nc1C,MIC,[13],64 µg/mL
same,MIC,[14],64 µg/mL
same,MIC,[15],64 µg/mL
same,MIC,[16],128 µg/mL
CC(=O)NC[C@H]1CN(c2ccc(N3CCN(/N=C/c4ccc([N+](=O)[O-])s4)CC3)c(F)c2)C(=O)O1,MIC,[17],1 µg/mL
same,MIC,[18],2 µg/mL
same,MIC,[19],0.25 µg/mL
Cc1nc(C)c(COc2ccc(N3C[C@H](CNC(=O)c4ccco4)OC3=O)cc2)nc1C,MIC,[13],64 µg/mL
same,MIC,[14],> 128 µg/mL
same,MIC,[15],128 µg/mL
same,MIC,[16],64 µg/mL
CC(=O)NC[C@H]1CN(c2ccc(N3CCN(/N=C/c4ccc([N+](=O)[O-])cc4)CC3)c(F)c2)C(=O)O1,MIC,[17],4 µg/mL
same,MIC,[18],4 µg/mL
same,MIC,[19],4 µg/mL
Cc1nc(C)c(COc2ccc(N3C[C@H](CNC(=O)CCl)OC3=O)cc2F)nc1C,MIC,[13],2 µg/mL
same,MIC,[14],8 µg/mL
same,MIC,[15],8 µg/mL
same,MIC,[16],4 µg/mL
O=C(/C=C/c1ccc(O)cc1)c1ccc(-c2ccc(N3C[C@H](CO)OC3=O)cc2)cc1,MIC,[7],3.12 µg/mL
same,MIC,[8],3.12 µg/mL
same,MIC,[9],3.12 µg/mL
same,MIC,[10],3.12 µg/mL
same,MIC,[11],3.12 µg/mL
same,MIC,[12],3.12 µg/mL
CC(=O)NC[C@H]1CN(c2ccc(N3CCN(/N=C(\C)Cn4c([N+](=O)[O-])cnc4C)CC3)c(F)c2)C(=O)O1,MIC,[17],1 µg/mL
same,MIC,[18],4 µg/mL
same,MIC,[19],1 µg/mL
CC(=O)NC[C@H]1CN(c2ccc(N3CCN(/N=C/c4c(Cl)cccc4[N+](=O)[O-])CC3)c(F)c2)C(=O)O1,MIC,[17],8 µg/mL
same,MIC,[18],8 µg/mL
same,MIC,[19],8 µg/mL
Cc1nc(C)c(COc2ccc(N3C[C@H](CNC(=O)C(Cl)Cl)OC3=O)cc2F)nc1C,MIC,[13],2 µg/mL
same,MIC,[14],8 µg/mL
same,MIC,[15],4 µg/mL
same,MIC,[16],4 µg/mL
CC(=O)NC[C@H]1CN(c2ccc(N3CCN(/N=C/c4cccc([N+](=O)[O-])c4)CC3)c(F)c2)C(=O)O1,MIC,[17],1 µg/mL
same,MIC,[18],2 µg/mL
same,MIC,[19],2 µg/mL
Cc1nc(C)c(COc2ccc(N3C[C@H](CNC(=O)c4ccco4)OC3=O)cc2F)nc1C,MIC,[13],32 µg/mL
same,MIC,[14],128 µg/mL
same,MIC,[15],32 µg/mL
same,MIC,[16],16 µg/mL
O=C(/C=C/c1ccccc1O)c1ccc(-c2ccc(N3C[C@H](CO)OC3=O)cc2)cc1,MIC,[7],3.12 µg/mL
same,MIC,[8],3.12 µg/mL
same,MIC,[9],3.12 µg/mL
same,MIC,[10],3.12 µg/mL
same,MIC,[11],3.12 µg/mL
same,MIC,[12],3.12 µg/mL
COCC(=O)NC[C@H]1CN(c2ccc(OCc3nc(C)c(C)nc3C)cc2)C(=O)O1,MIC,[13],64 µg/mL
same,MIC,[14],> 128 µg/mL
same,MIC,[15],> 128 µg/mL
same,MIC,[16],128 µg/mL
CC(=O)NC[C@H]1CN(c2ccc(N3CCN(/N=C/c4ccc([N+](=O)[O-])o4)CC3)c(F)c2)C(=O)O1,MIC,[17],1 µg/mL
same,MIC,[18],1 µg/mL
same,MIC,[19],0.25 µg/mL
C[C@@H]1[C@H](O)[C@@H](C)/C=C/C=C/C=C/C=C/C=C/C=C/C=C/[C@H](O[C@@H]2O[C@H](C)[C@@H](O)[C@H](N)[C@@H]2O)C[C@@H]2O[C@](O)(C[C@@H](O)C[C@@H](O)[C@H](O)CC[C@@H](O)C[C@@H](O)CC(=O)O[C@H]1C)C[C@H](O)[C@H]2C(=O)O [AMPHOTERICIN B],MIC,[1],6.25 µg
same,MIC,[4],6.25 µg
Cc1nc(C)c(COc2ccc(N3C[C@H](CNC(=O)CCl)OC3=O)cc2)nc1C,MIC,[13],8 µg/mL
same,MIC,[14],16 µg/mL
same,MIC,[15],8 µg/mL
same,MIC,[16],8 µg/mL
